How the values were obtained:
[1] = tested on: Escherichia coli ATCC 25922; experiment: Antimicrobial activity, serial dilution technique in Mueller–Hinton Broth 2; assay type: cell-based; settings: average of three ± SD, - means non-active
[2] = tested on: Staphylococcus aureus ATCC 6538P FDA 209P; experiment: as above; assay type: cell-based; settings: average of three ± SD, - means non-active
Summary of the method: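 Antimicrobial activity against Staphylococcus aureus ATCC 6538P FDA 209P was measured by serial dilution in Mueller–Hinton Broth 2 at a bacterial load of 3.0 × 10^5 cfu/mL. Cultures were incubated at 37 °C, growth was recorded every 24 h for 5 days, and the experiment was done three times.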

[3] = tested on: Enterococcus faecalis ATCC 2921; experiment: as above; assay type: cell-based; settings: average of three ± SD, - means non-active
Summary of the method: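 Antibacterial activity against Enterococcus faecalis ATCC 2921 was assessed by serial dilution in Mueller–Hinton Broth 2 with a bacterial load of 3.0 × 10^5 cfu/mL. Cultures were incubated at 37 °C, with growth recorded every 24 h for 5 days, and the experiment was performed three times.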

[4] = tested on: Escherichia coli ATCC 25922; experiment: as above; assay type: cell-based; settings: average of three ± SD, - means non-active; remark: listed apart in the source
Summary of the method: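 Compounds were serially diluted in Mueller–Hinton Broth 2 and inoculated at 3.0 × 10^5 cfu/mL. Cultures were then incubated at 37 °C with growth recorded daily for 5 days. The MIC was taken as the minimum concentration inhibiting growth, from three experiments.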

[5] = tested on: Bacillus cereus ATCC 10702 NCTC 8035; experiment: as above; assay type: cell-based; settings: average of three ± SD, - means non-active
Summary of the method: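 Antibacterial activity against Bacillus cereus ATCC 10702 NCTC 8035 was measured by serial dilution in Mueller–Hinton Broth 2 at a bacterial load of 3.0 × 10^5 cfu/mL. Cultures were kept at 37 °C and growth was read every 24 h for 5 days. The experiment was done three times, and MIC and bactericidal concentrations were determined.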

[6] = tested on: methicillin-resistant S. aureus MRSA-2; experiment: as above; assay type: cell-based, Staphylococcus aureus; settings: - means non-active
Summary of the method: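 Antimicrobial activity against methicillin-susceptible Staphylococcus aureus MRSA-2, a beta-lactam-resistant clinical isolate from a sinusitis patient at the Republican Clinical Hospital (Kazan), was assessed by serial dilution in Mueller–Hinton Broth 2. The inoculum was 3.0 × 10^5 cfu/mL. Cultures were incubated at 37 °C and read every 24 h for 5 days, in three repeat experiments.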

[7] = tested on: methicillin-resistant S. aureus MRSA-1; experiment: as above; assay type: cell-based, Staphylococcus aureus; settings: - means non-active
Summary of the method: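 Antimicrobial activity against methicillin-susceptible Staphylococcus aureus MRSA-1, a hospital isolate from a chronic tonsillitis patient that is resistant to fluoroquinolones and beta-lactams, was determined by serial dilution in Mueller–Hinton Broth 2. The bacterial load was 3.0 × 10^5 cfu/mL, incubation was at 37 °C, and growth was recorded every 24 h for 5 days.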

Chang liver cell line = experiment: Cytotoxicity assay (Cytell Cell Imaging, DAPI/propidium iodide); assay type: cell-based, human
human erythrocytes = experiment: Hemolytic activity; assay type: cell-based; settings: red blood cells
Excerpt: An important characteristic when assessing the biological activity of new chemical compounds is their cytotoxic effect on eukaryotic cells. The ability of an investigated compound to cause the destruction of human erythrocytes illustrates its toxic effect on the internal environment. The hemolysis assay is a simple screening test that can help in the study of cytotoxicity in more complex models. Cell lines obtained from various human organs and tissues that allow for adequate estimation of the effects of new potential drugs on cell metabolism can serve as experimental models.
The hemolytic activity of the QPSs was estimated by comparing the optical density of a solution containing the test compound with that of blood at 100% hemolysis. The experiments were carried out as previously described.

[8] = tested on: Trichophyton mentagrophytes var. gypseum 1773; experiment: Fungicidal activity, serial dilution technique; assay type: cell-based; settings: Tm, average of three ± SD, - means non-active
Summary of the method: (§1)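 Serial dilution in Mueller–Hinton Broth 2 with an inoculum of 3.0 × 10^5 cfu/mL, 37 °C, read every 24 h for 5 days; three repeats. MIC is the lowest concentration inhibiting visible growth of the test organism.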

[9] = tested on: Candida albicans ATCC 10231; experiment: Fungicidal activity, serial dilution technique; assay type: cell-based; settings: average of three ± SD, - means non-active
Summary of the method: as §1

## CCCCCCCCCC[P+](C(C)(C)C)(C(C)(C)C)C(C)(C)C [Compound 10b]
[1]; Ec
  Minimum Bactericidal and Fungicidal Concentration (MBC, MFC), Ec: 62.5 ± 5.5 µg/mL
[2]
  Minimum Bactericidal and Fungicidal Concentration (MBC, MFC), Sa: 3.9 ± 0.2 µg/mL
  Minimum Inhibitory Concentration (MIC), Sa: 3.9 ± 0.2 µg/mL
[3]; Ef
  Minimum Bactericidal and Fungicidal Concentration (MBC, MFC), Ef: 15.6 ± 1.2 µg/mL
  Minimum Inhibitory Concentration (MIC), Ef: 15.6 ± 1.3 µg/mL
[4]; Ec
  Minimum Inhibitory Concentration (MIC), Ec: 62.5 ± 5.4 µg/mL
[5]
  Minimum Bactericidal and Fungicidal Concentration (MBC, MFC), Bc: 125 ± 9 µg/mL
  Minimum Inhibitory Concentration (MIC), Bc: 7.8 ± 0.6 µg/mL
[6]; MRSA-2 (resistant to beta-lactams)
  Minimum Inhibitory Concentration (MIC), MRSA-2: 3.9 ± 0.2 µg/mL
[6]; MRSA-2
  Minimum Bactericidal and Fungicidal Concentration (MBC, MFC), MRSA-2: 7.8 ± 0.6 µg/mL
[7]; MRSA-1 (resistant to fluoroquinolones and beta-lactams)
  Minimum Inhibitory Concentration (MIC), MRSA-1: 1.9 ± 0.1 µg/mL
[7]; MRSA-1
  Minimum Bactericidal and Fungicidal Concentration (MBC, MFC), MRSA-1: 15.6 ± 1.3 µg/mL
Chang liver cell line; Chang liver cells
  IC50 (concentration that causes the death of 50% of the cells): 71 µg/mL
Human erythrocytes
  HC50 (concentration that causes 50% hemolysis of erythrocytes): > 125 µg/mL
[8]
  Minimum Bactericidal and Fungicidal Concentration (MBC, MFC), Tm: 125 ± 10 µg/mL
  Minimum Inhibitory Concentration (MIC), Tm: 125 ± 10 µg/mL
[9]; Ca
  Minimum Bactericidal and Fungicidal Concentration (MBC, MFC), Ca: 31.3 ± 2.2 µg/mL
  Minimum Inhibitory Concentration (MIC), Ca: 31.3 ± 2.4 µg/mL

## CCCCCCCCCC[P+](C(C)(C)C)(C(C)(C)C)C(C)(C)C [Compound 10a]
[1]; Escherichia coli, ATCC25922, Ec, read-out: Minimum Bactericidal and Fungicidal Concentration (MBC, MFC), Ec
  MBC: 31.3 ± 2.6 µg/mL
[2]
  Minimum Bactericidal and Fungicidal Concentration (MBC, MFC), Sa: 1.9 ± 0.1 µg/mL
  Minimum Inhibitory Concentration (MIC), Sa: 1.9 ± 0.1 µg/mL
[3]; Enterococcus faecalis, ATCC2921, Ef, read-out: Minimum Bactericidal and Fungicidal Concentration (MBC, MFC), Ef
  MBC: 7.8 ± 0.6 µg/mL
[3]; Enterococcus faecalis, ATCC2921, Ef, read-out: Minimum Inhibitory Concentration (MIC), Ef
  MIC: 7.8 ± 0.6 µg/mL
[4]; Escherichia coli, ATCC25922, Ec, read-out: Minimum Inhibitory Concentration (MIC), Ec
  MIC: 31.3 ± 2.7 µg/mL
[5]; Bacillus cereus, Bc, read-out: Minimum Inhibitory Concentration (MIC), Bc
  MIC: 3.9 ± 0.2 µg/mL
[5]
  Minimum Bactericidal and Fungicidal Concentration (MBC, MFC), Bc: 31.3 ± 2.5 µg/mL
[6]; Staphylococcus aureus, MRSA, MRSA-2 (resistant to beta-lactams), read-out: Minimum Inhibitory Concentration (MIC), MRSA-2
  MIC: 3.9 ± 0.2 µg/mL
[6]; Staphylococcus aureus, MRSA, MRSA-2, read-out: Minimum Bactericidal and Fungicidal Concentration (MBC, MFC), MRSA-2
  MBC: 3.9 ± 0.2 µg/mL
[7]; Staphylococcus aureus, MRSA, MRSA-1 (resistant to fluoroquinolones and beta-lactams), read-out: Minimum Inhibitory Concentration (MIC), MRSA-1
  MIC: 1.9 ± 0.1 µg/mL
[7]; Staphylococcus aureus, MRSA, MRSA-1, read-out: Minimum Bactericidal and Fungicidal Concentration (MBC, MFC), MRSA-1
  MBC: 15.6 ± 1.2 µg/mL
Chang liver cell line; Homo sapiens, Chang liver, read-out: IC50 (concentration that causes the death of 50% of the cells), Chang liver cells
  IC50: 66 µg/mL
Human erythrocytes
  HC50 (concentration that causes 50% hemolysis of erythrocytes): > 125 µg/mL
[8]; Trichophyton mentagrophytes, read-out: Minimum Bactericidal and Fungicidal Concentration (MBC, MFC), Tm
  MBC: 125 ± 11 µg/mL
[8]; Trichophyton mentagrophytes, read-out: Minimum Inhibitory Concentration (MIC), Tm
  MIC: 125 ± 11 µg/mL
[9]; Candida albicans, ATCC10231, Ca, read-out: Minimum Bactericidal and Fungicidal Concentration (MBC, MFC), Ca
  MBC: 31.3 ± 2.3 µg/mL
[9]; Candida albicans, ATCC10231, Ca, read-out: Minimum Inhibitory Concentration (MIC), Ca
  MIC: 31.3 ± 2.6 µg/mL

From article PMC8744835, “Sterically Hindered Quaternary Phosphonium Salts (QPSs): Antimicrobial Activity and Hemolytic and Cytotoxic Properties” (International Journal of Molecular Sciences, 2021)
